Molecular target: PDGFβ (Homo sapiens (Human), UniProt P09619)
Experiment: PDGF stimulated Ca2+ signal in vitro (FLIPR, NHDF-Ad); PDGFβ cellular
Assay type: cell-based
Details: PDGF 10 ng/mL, amide linker compounds
Procedure: Automated FLIPR (Fluorometric Imaging Plate Reader) technology was used to screen for inhibitors of PDGF induced increases in intracellular calcium levels in fluorescent dye loaded […] cells. NHDF-Ad (Normal human dermal fibroblasts) (Lonza) were seeded in 384-well fibronectin coated black-walled plates overnight at 37° C./5% CO2. […] Cells were washed 4 times (ELx405-CW, Bio-Tek) to remove extracellular dye.

Sequence of PDGFβ (P09619 33-1106): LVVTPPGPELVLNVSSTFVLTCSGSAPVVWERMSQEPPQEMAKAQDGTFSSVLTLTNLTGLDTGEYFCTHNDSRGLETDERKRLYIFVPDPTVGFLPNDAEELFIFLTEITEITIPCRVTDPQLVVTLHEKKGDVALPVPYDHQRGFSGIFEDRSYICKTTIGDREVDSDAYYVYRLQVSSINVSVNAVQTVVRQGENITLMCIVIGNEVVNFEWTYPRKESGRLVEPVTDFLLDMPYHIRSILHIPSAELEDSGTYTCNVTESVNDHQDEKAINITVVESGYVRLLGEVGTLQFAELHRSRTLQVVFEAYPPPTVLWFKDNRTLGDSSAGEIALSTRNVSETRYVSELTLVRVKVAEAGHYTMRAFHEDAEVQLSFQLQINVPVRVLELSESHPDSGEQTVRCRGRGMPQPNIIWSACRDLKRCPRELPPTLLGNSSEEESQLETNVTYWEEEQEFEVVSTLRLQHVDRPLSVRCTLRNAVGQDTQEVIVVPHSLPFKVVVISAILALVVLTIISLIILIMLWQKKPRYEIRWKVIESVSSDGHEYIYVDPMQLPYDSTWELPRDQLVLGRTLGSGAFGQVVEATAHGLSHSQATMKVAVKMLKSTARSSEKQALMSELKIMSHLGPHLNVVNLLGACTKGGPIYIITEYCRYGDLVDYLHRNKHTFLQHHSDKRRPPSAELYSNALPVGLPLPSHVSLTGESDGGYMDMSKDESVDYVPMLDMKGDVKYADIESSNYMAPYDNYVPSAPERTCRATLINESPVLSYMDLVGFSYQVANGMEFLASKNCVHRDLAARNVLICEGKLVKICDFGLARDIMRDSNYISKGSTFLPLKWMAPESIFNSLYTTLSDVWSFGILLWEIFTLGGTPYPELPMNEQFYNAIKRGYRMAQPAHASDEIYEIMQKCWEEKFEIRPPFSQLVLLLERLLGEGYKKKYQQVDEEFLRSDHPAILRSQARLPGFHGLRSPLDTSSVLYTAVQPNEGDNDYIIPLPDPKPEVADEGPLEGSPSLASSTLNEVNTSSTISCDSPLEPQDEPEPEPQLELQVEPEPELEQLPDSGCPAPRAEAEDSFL

## 2,3-dihydroxypropyl 5-(4-{3-[(3-methyl-2-furoyl)amino]phenoxy}pyridin-2-yl)-1H-pyrrole-3-carboxylate [Example 21]
  IC50: 39 nM

Reference: patent US9725433B2, “Compounds as tyrosine kinase modulators” (Allergan, Inc., priority 2009, dated 2017)
